Reference: patent US7402691B2, “Malononitrile compounds and their use as pesticides” (Sumitomo Chemical Company, Limited, priority 2001, dated 2008)
Like-named read-outs stand apart in the source and are kept apart here.

Experiments:
Format in all cases: in vivo
Musca domestica = experiment: Pesticidal test against Musca domestica, filter paper with sucrose bait (Test Example 6)
Experimental: Ten female adults of Musca domestics (house fly) were set free in the polyethylene cup, which was then kept covered. After 24 hours, their survival was examined to determine the mortality.

[1] = test system: Leptinotarsa decemlineata; experiment: Pesticidal test against Leptinotarsa decemlineata, eggplant leaf dip (Test Example 5); conditions: foliar, 120 h, eggplant leaf immersed 1 minute, second-instar larvae, 5th day after release, read-out: rate of dead or moribund pests
Experimental: A leaf of eggplant was immersed in the test liquid, which had been prepared as described above, for 1 minute. After the test liquid treated the leaf of eggplant was dried with a paper towel, the leaf of eggplant was placed in a polyethylene cup of 3 cm in diameter. One second-instar larvae of Leptinotarsa decemlineata (Colorado potato beetle) were set free in the polyethylene cup, which was then kept covered and left in a greenhouse at 25° C. This test was done ten times for one compound. On the 5th day after the release of Leptinotarsa decemlineata, the number of dead pests and moribund pests was examined.

Eysarcoris lewisi = experiment: Pesticidal test against Eysarcoris lewisi, treated peanut seeds (Test Example 4); conditions: 168 h, peanut seeds immersed 1 minute, adults, 7th day after release, read-out: rate of dead or moribund pests
Experimental: Then, 3 to 5 seeds of peanut were immersed in the test liquid, which had been prepared as described above, for 1 minute. After the test liquid treated the seeds of peanut was dried with a paper towel, a filter paper moistened with 1 ml of water was placed on a bottom of polyethylene cup and then the seeds of peanut was placed on it. Six to eight adults of Eysarcoris lewisi were set free in the polyethylene cup, which was then kept covered and left in a greenhouse at 25° C. On the 7th day after the release of Eysarcoris lewisi, the number of dead pests and moribund pests was examined.

Ctenocephalides felis = experiment: Pesticidal test against Ctenocephalides felis, treated filter paper (Test Example 9); conditions: 200 mg/m^2 on filter paper (acetone solution), twenty adults, after 24 hours
Experimental: Each of the compound 8, 15, 19, 21 and 34 was dissolved in acetone to give a 0.2 ml solution of 0.114% w/w, which was uniformly treated on a filter paper having 3.8cm in diameter, and air-dried. The amount of active ingredient was 200 mg/m^2. The filter paper was filled in a lid of a 200 ml glass bottle. Twenty adult Ctenocephalides felis (cat flea) were released in the glass bottle, which was followed by covering with the lid. The glass bottle was upset for making the fleas contact with the filter paper. After 24 hours, the mortality was examined.

[2] = 500 ppm, 0.7 ml on filter paper, ten female adults, after 24 hours, read-out: mortality

N#CC(C#N)(CCC(F)=C(F)F)Cc1ccccc1 [Compound 4, 2-benzyl-2-(3,4,4-trifluoro-3-butenyl)malononitrile]
mortality at 500 ppm (Musca domestica; [2]): 100%

N#CC(C#N)(Cc1ccc(OC(F)(F)F)cc1)CC(F)(F)C(F)(F)F [Compound 5, 2-(2,2,3,3,3-pentafluoropropyl)-2-(4-(trifluoromethoxy)benzyl)malononitrile]
pest or weed control at 1.6 ppm [1]: > 80%
mortality at 500 ppm (Musca domestica; [2]): 100%

N#CC(C#N)(CCC(F)(F)F)Cc1c(Cl)cc(C(F)(F)F)cc1Cl [Compound 7, 2-(2,6-dichloro-4-(trifluoromethyl)benzyl)-2-(3,3,3-trifluoropropyl)malononitrile]
mortality at 500 ppm (Musca domestica; [2]): 100%

N#CC(C#N)(CCC(F)(F)F)Cc1ccc(Br)cc1 [Compound 9, 2-(4-bromobenzyl)-2-(3,3,3-trifluoropropyl)malononitrile]
pest or weed control at 100 ppm (Eysarcoris lewisi): 100%
mortality at 500 ppm (Musca domestica; [2]): 100%

N#CC(C#N)(CCC(F)(F)C(F)(F)F)Cc1ccc(OC(F)(F)F)cc1 [Compound 10, 2-(3,3,4,4,4-pentafluorobutyl)-2-(4-(trifluoromethoxy)benzyl)malononitrile]
pest or weed control at 100 ppm (Eysarcoris lewisi): 100%
pest or weed control at 1.6 ppm [1]: > 80%
mortality at 500 ppm (Musca domestica; [2]): 100%

N#CC(C#N)(CCC(F)F)Cc1ccc(C(F)(F)F)cc1 [Compound 11, 2-(3,3-difluoropropyl)-2-(4-(trifluoromethyl)benzyl)malononitrile]
pest or weed control at 100 ppm (Eysarcoris lewisi): 100%
mortality at 500 ppm (Musca domestica; [2]): 100%

N#CC(C#N)(CCC(F)(F)F)Cc1ccccc1 [Compound 12, 2-benzyl-2-(3,3,3-trifluoropropyl)malononitrile]
mortality at 500 ppm (Musca domestica; [2]): 100%

N#CC(C#N)(CCC(F)(F)F)Cc1ccc(SC(F)(F)F)cc1 [Compound 13, 2-(4-(trifluoromethylthio)benzyl)-2-(3,3,3-trifluoropropyl)malononitrile]
mortality at 500 ppm (Musca domestica; [2]): 100%

N#CC(C#N)(CCCF)Cc1ccc(C(F)(F)F)cc1 [Compound 14, 2-(3-fluoropropyl)-2-(4-(trifluoromethyl)benzyl)malononitrile]
pest or weed control at 100 ppm (Eysarcoris lewisi): 100%
mortality at 500 ppm (Musca domestica; [2]): 100%

N#CC(C#N)(CCC(F)(F)F)Cc1ccc(F)cc1 [Compound 16, 2-(4-fluorobenzyl)-2-(3,3,3-trifluoropropyl)malononitrile]
mortality at 500 ppm (Musca domestica; [2]): 100%

N#CC(C#N)(CCC(F)(F)F)Cc1ccc([N+](=O)[O-])cc1 [Compound 18, 2-(4-nitrobenzyl)-2-(3,3,3-trifluoropropyl)malononitrile]
mortality at 500 ppm (Musca domestica; [2]): 100%

N#CC(C#N)(CCC(F)(F)F)Cc1ccc(F)c(F)c1 [Compound 19, 2-(3,4-difluorobenzyl)-2-(3,3,3-trifluoropropyl)malononitrile]
mortality at 500 ppm (Musca domestica; [2]): 100%
mortality at 200 mg/m2 (Ctenocephalides felis): 100%

N#Cc1ccc(CC(C#N)(C#N)CCC(F)(F)F)cc1 [Compound 22, 2-(4-cyanobenzyl)-2-(3,3,3-trifluoropropyl)malononitrile]
pest or weed control at 100 ppm (Eysarcoris lewisi): 100%
mortality at 500 ppm (Musca domestica; [2]): 100%

N#CC(C#N)(CCC(F)(F)C(F)(F)F)Cc1ccc(Cl)cc1 [Compound 23, 2-(4-chlorobenzyl)-2-(3,3,4,4,4-pentafluorobutyl)malononitrile]
pest or weed control at 100 ppm (Eysarcoris lewisi): 100%
mortality at 500 ppm (Musca domestica; [2]): 100%

N#CC(C#N)(CCC(F)(F)F)Cc1ccc(I)cc1 [Compound 26, 2-(4-iodobenzyl)-2-(3,3,3-trifluoropropyl)malononitrile]
mortality at 500 ppm (Musca domestica; [2]): 100%

C=Cc1ccc(CC(C#N)(C#N)CCC(F)(F)F)cc1 [Compound 27, 2-(3,3,3-trifluoropropyl)-2-(4-vinylbenzyl)malononitrile]
mortality at 500 ppm (Musca domestica; [2]): 100%

CCc1ccc(CC(C#N)(C#N)CCC(F)(F)F)cc1 [Compound 31, 2-(4-ethylbenzyl)-2-(3,3,3-trifluoropropyl)malononitrile]
mortality at 500 ppm (Musca domestica; [2]): 100%

CC(C)(C)c1ccc(CC(C#N)(C#N)CCC(F)(F)F)cc1 [Compound 33, 2-(4-t-butylbenzyl)-2-(3,3,3-trifluoropropyl)malononitrile]
mortality at 500 ppm (Musca domestica; [2]): 100%

CC(C)c1ccc(CC(C#N)(C#N)CCC(F)(F)F)cc1 [Compound 35, 2-(4-isopropylbenzyl)-2-(3,3,3-trifluoropropyl)malononitrile]
mortality at 500 ppm (Musca domestica; [2]): 100%

N#CC(C#N)(CCC(F)(F)F)Cc1ccc(C(F)(F)F)c(Cl)c1 [Compound 39, 2-(3-chloro-4-(trifluoromethyl)benzyl)-2-(3,3,3-trifluoropropyl)malononitrile]
pest or weed control at 100 ppm (Eysarcoris lewisi): 100%
mortality at 500 ppm (Musca domestica; [2]): 100%

CC(c1ccc(Cl)cc1)C(C#N)(C#N)CCC(F)(F)F (centres unmarked) [Compound 42, 2-(1-(4-chlorophenyl)ethyl)-2-(3,3,3-trifluoropropyl)malononitrile]
mortality at 500 ppm (Musca domestica; [2]): 100%

N#CC(C#N)(CCC(F)(F)F)Cc1ccc(F)cc1Cl [Compound 44, 2-(2-chloro-4-fluorobenzyl)-2-(3,3,3-trifluoropropyl)malononitrile]
mortality at 500 ppm (Musca domestica; [2]): 100%

Cc1cc(CC(C#N)(C#N)CCC(F)(F)F)ccc1[N+](=O)[O-] [Compound 45, 2-(3-methyl-4-nitrobenzyl)-2-(3,3,3-trifluoropropyl)malononitrile]
mortality at 500 ppm (Musca domestica; [2]): 100%

N#Cc1ccc(CC(C#N)(C#N)CCF)cc1 [Compound 46, 2-(4-cyanobenzyl)-2-(2-fluoroethyl)malononitrile]
mortality at 500 ppm (Musca domestica; [2]): 100%

N#CC(C#N)(CCC(F)=C(F)F)Cc1ccc(OC(F)(F)F)cc1 [Compound 49, 2-(3,4,4-trifluoro-3-butenyl)-2-(4-(trifluoromethoxy)benzyl)malononitrile]
mortality at 500 ppm (Musca domestica; [2]): 100%

N#CC(C#N)(CCC(F)(F)F)Cc1ccc(OC(F)(F)F)cc1 [Compound 50, 2-(3,3,3-trifluoropropyl)-2-(4-(trifluoromethoxy)benzyl)malononitrile]
pest or weed control at 100 ppm (Eysarcoris lewisi): 100%
pest or weed control at 1.6 ppm [1]: > 80%
mortality at 500 ppm (Musca domestica; [2]): 100%

CC(c1ccc(Cl)cc1)C(C#N)(C#N)CCF (centres unmarked) [Compound 53, 2-(1-(4-chlorophenyl)ethyl)-2-(2-fluoroethyl)malononitrile]
mortality at 500 ppm (Musca domestica; [2]): 100%

N#CC(C#N)(CCC(F)=C(F)F)Cc1ccc(SC(F)(F)F)cc1 [Compound 54, 2-(3,4,4-trifluoro-3-butenyl)-2-(4-(trifluoromethylthio)benzyl)malononitrile]
mortality at 500 ppm (Musca domestica; [2]): 100%

N#CC(C#N)(CCF)Cc1ccc(F)cc1 [Compound 59, 2-(4-fluorobenzyl)-2-(2-fluoroethyl)malononitrile]
mortality at 500 ppm (Musca domestica; [2]): 100%

N#CC(C#N)(CCC(F)(F)F)Cc1cc(F)cc(F)c1 [Compound 71, 2-(3,5-difluorobenzyl)-2-(3,3,3-trifluoropropyl)malononitrile]
mortality at 500 ppm (Musca domestica; [2]): 100%

N#CC(C#N)(Cc1ccc(C(F)(F)F)cc1)CC(F)(F)F [Compound 72, 2-(2,2,2-trifluoroethyl)-2-(4-(trifluoromethyl)benzyl)malononitrile]
mortality at 500 ppm (Musca domestica; [2]): 100%

N#CC(C#N)(CCC(F)=C(F)F)Cc1ccc(C(F)(F)F)cc1 [Compound 73, 2-(3,4,4-trifluoro-3-butenyl)-2-(4-(trifluoromethyl)benzyl)malononitrile]
mortality at 500 ppm (Musca domestica; [2]): 100%

N#CC(C#N)(CCC(F)(F)F)Cc1ccc(C(F)(F)F)cc1 [Compound 74, 2-(3,3,3-trifluoropropyl)-2-(4-(trifluoromethyl)benzyl)malononitrile]
pest or weed control at 100 ppm (Eysarcoris lewisi): 100%
pest or weed control at 1.6 ppm [1]: > 80%
mortality at 500 ppm (Musca domestica; [2]): 100%

N#CC(C#N)(Cc1ccc(C(F)(F)F)cc1)CC(F)(F)C(F)(F)F [Compound 76, 2-(2,2,3,3,3-pentafluoropropyl)-2-(4-(trifluoromethyl)benzyl)malononitrile]
pest or weed control at 100 ppm (Eysarcoris lewisi): 100%
pest or weed control at 1.6 ppm [1]: > 80%
mortality at 500 ppm (Musca domestica; [2]): 100%

N#CC(C#N)(Cc1ccc(C(F)(F)F)cc1)CC(F)(F)C(F)(F)C(F)(F)F [Compound 77, 2-(2,2,3,3,4,4,4-heptafluorobutyl)-2-(4-(trifluoromethyl)benzyl)malononitrile]
mortality at 500 ppm (Musca domestica; 24 h): 100%

N#CC(C#N)(CCCC(F)(F)F)Cc1ccc(C(F)(F)F)cc1 [Compound 78, 2-(4,4,4-trifluorobutyl)-2-(4-(trifluoromethyl)benzyl)malononitrile]
pest or weed control at 1.6 ppm [1]: > 80%
mortality at 500 ppm (Musca domestica; [2]): 100%

N#CC(C#N)(CCC(F)(F)F)Cc1cccc(F)c1 [Compound 79, 2-(3-fluorobenzyl)-2-(3,3,3-trifluoropropyl)malononitrile]
mortality at 500 ppm (Musca domestica; [2]): 100%

N#CC(C#N)(CCC(F)(F)F)Cc1cccc(OCc2ccccc2)c1 [Compound 88, 2-(3-(benzyloxy)benzyl)-2-(3,3,3-trifluoropropyl)malononitrile]
mortality at 500 ppm (Musca domestica; [2]): 100%

COc1ccc(CC(C#N)(C#N)CCC(F)(F)F)cc1 [Compound 89, 2-(4-methoxybenzyl)-2-(3,3,3-trifluoropropyl)malononitrile]
mortality at 500 ppm (Musca domestica; [2]): 100%
